Assay results taken from ChEMBL document CHEMBL6092149, “Discovery of 1(2H)-phthalazinone and 1(2H)-isoquinolinone derivatives as potent hematopoietic progenitor kinase 1 (HPK1) inhibitors” (Eur J Med Chem, 2024).

What was measured:
[1] = target: T1, Mitogen-activated protein kinase kinase kinase kinase 1 (Homo sapiens, UniProt Q92918); assay: Inhibition of N-terminal DYKDDDDK recombinant human HPK1 (1 to 346 residues) expressed in Sf21 insect cells preincubated for 10 min followed by fluorescein PKC and ATP addition and measured after 90 min by Envision2104 Multilabel Reader analysis
Target sequence in this assay (Q92918 whole entry, the tested form may be a part): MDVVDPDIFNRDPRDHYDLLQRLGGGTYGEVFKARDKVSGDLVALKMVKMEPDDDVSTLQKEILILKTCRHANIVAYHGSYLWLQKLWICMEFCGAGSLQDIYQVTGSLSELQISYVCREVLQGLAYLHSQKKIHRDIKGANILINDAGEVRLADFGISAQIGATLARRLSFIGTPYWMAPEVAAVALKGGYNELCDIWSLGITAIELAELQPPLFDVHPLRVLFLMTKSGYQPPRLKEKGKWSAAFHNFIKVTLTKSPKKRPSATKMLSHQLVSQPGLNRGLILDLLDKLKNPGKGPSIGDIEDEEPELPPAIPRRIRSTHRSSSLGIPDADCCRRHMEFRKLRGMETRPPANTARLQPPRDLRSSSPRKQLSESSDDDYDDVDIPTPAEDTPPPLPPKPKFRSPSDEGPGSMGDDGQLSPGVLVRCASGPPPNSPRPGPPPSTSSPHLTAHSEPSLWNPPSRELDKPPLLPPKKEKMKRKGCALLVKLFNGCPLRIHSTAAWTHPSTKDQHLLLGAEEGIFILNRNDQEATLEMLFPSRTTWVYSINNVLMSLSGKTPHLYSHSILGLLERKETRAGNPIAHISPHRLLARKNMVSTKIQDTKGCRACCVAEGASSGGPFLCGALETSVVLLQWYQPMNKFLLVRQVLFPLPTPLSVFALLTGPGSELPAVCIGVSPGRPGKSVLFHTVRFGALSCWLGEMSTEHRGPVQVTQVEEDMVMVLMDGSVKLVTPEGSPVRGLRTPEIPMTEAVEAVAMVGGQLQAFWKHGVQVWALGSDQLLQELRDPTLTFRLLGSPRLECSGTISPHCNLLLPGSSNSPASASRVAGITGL

[2] = target: T1, Mitogen-activated protein kinase kinase kinase kinase 1; assay: Inhibition of HPK1 in human Jurkat cells assessed as reduction in SLP76 phosphorylation pretreated for 1 hr followed by anti-CD3 addition and measured after 15 min by ELISA method; assay type: cell-based
Target sequence in this assay (Q92918 whole entry, the tested form may be a part): as above

[3] = target: T1, Mitogen-activated protein kinase kinase kinase kinase 1; assay: Inhibition of HPK1 in human T cells assessed as increase in IL-2 secretion measured after 24 hrs by ELISA method; assay type: cell-based, T-cell; conditions: for Activity: T-cell
[4] = target: Mitogen-activated protein kinase 1 (Homo sapiens) (UniProt P28482); assay: Inhibition of ERK2 (unknown origin) at 1000 nM incubated for 1 hrs by active site-directed competition binding assay relative to control
[5] = target: Mitogen-activated protein kinase kinase kinase 1 (Homo sapiens) (UniProt Q13233); assay: Inhibition of MAP3K1 (unknown origin) at 1000 nM incubated for 1 hrs by active site-directed competition binding assay relative to control; values are per cent of control
[6] = target: Tyrosine-protein kinase ITK/TSK (Homo sapiens) (UniProt Q08881); assay: Inhibition of ITK (unknown origin) at 1000 nM incubated for 1 hrs by active site-directed competition binding assay relative to control
[7] = Toxicity against BALB/c mouse allografted with mouse CT26 cells assessed as body weight loss at 30 mg/kg, administered orally twice daily for 2 weeks; assay type: organism-based; conditions: in vivo, po, 336 h
[8] = Plasma clearance in overnight fasted mouse at 1 mg/kg, iv; assay type: ADME, organism-based
[9] = Half life in overnight fasted rat at 1 mg/kg, iv; assay type: ADME, organism-based; conditions: in vivo
[10] = Inhibition of N-terminal His-tagged recombinant human TAK1(1 to 303 residues) expressed in Sf21 insect cells preincubated for 10 min followed by inactive MEK1 and ATP addition and measured after 90 min by Envision2104 Multilabel Reader analysis
[11] = Oral bioavailability in in overnight fasted rat at 10 mg/kg; assay type: ADME, organism-based; conditions: in vivo
[12] = target: Mitogen-activated protein kinase kinase kinase kinase 1 (Mus musculus) (UniProt P70218); assay: In vivo inhibition of HPK1 in female BALB/c mouse assessed as reduction in SLP76 phosphorylation in spleen at 100 mg/kg qd, ip and measured after 3 hrs post dosing by Western blot analysis relative to control; assay type: functional, organism-based
[13] = target: Mitogen-activated protein kinase 14 (Homo sapiens) (UniProt Q16539); assay: Inhibition of P38alpha (unknown origin) at 1000 nM incubated for 1 hrs by active site-directed competition binding assay relative to control
[14] = target: Mitogen-activated protein kinase kinase kinase kinase 3 (Homo sapiens, UniProt Q8IVH8); assay: Inhibition of GST-tagged recombinant human MAP4K3 (1 to 380 residues) extracted from Baculovirus infected Sf9 insect cells preincubated for 10 min followed by fluorescein PKC and ATP addition and measured after 90 min by Envision2104 Multilabel Reader analysis
[15] = target: Inhibitor of nuclear factor kappa-B kinase subunit beta (Homo sapiens) (UniProt O14920); assay: Inhibition of IKKbeta (unknown origin) at 1000 nM incubated for 1 hrs by active site-directed competition binding assay relative to control
CT26 [16] = assay: Antitumor activity against mouse CT26 cells allografted in female BALB/c mouse assessed as tumor growth inhibition at 3 mg/kg, ip administered twice daily and measured on 13 day in presence of presence of anti-PD-1 relative to control; assay type: functional; conditions: CT26, 312 h, read-out: TGI
[17] = target: Mitogen-activated protein kinase 3 (Homo sapiens) (UniProt P27361); assay: Inhibition of ERK1 (unknown origin) at 1000 nM incubated for 1 hrs by active site-directed competition binding assay relative to control
Misshapen-like kinase 1 = Misshapen-like kinase 1 (Homo sapiens, UniProt Q8N4C8); assay: Inhibition of N-terminal GST-tagged recombinant human MAP4K6 (7 to 139 residues) expressed in Sf21 insect cells preincubated for 10 min followed by fluorescein PKC and ATP addition and measured after 90 min by Envision2104 Multilabel Reader analysis
[18] = target: RAC-beta serine/threonine-protein kinase (Homo sapiens) (UniProt P31751); assay: Inhibition of AKT2 (unknown origin) at 1000 nM incubated for 1 hrs by active site-directed competition binding assay relative to control; values are per cent of control
[19] = Cmax in overnight fasted rat at 10 mg/kg, po; assay type: ADME, organism-based; conditions: in vivo
CT26 [20] = assay: Antitumor activity against mouse CT26 cells allografted in female BALB/c mouse assessed as tumor growth inhibition at 30 mg/kg, administered orally twice daily for 2 weeks; assay type: functional; conditions: CT26, 336 h, route po, read-out: TGI
[21] = target: Calcium/calmodulin-dependent protein kinase type IV (Homo sapiens) (UniProt Q16566); assay: Inhibition of CAMK4 (unknown origin) at 1000 nM incubated for 1 hrs by active site-directed competition binding assay relative to control; values are per cent of control
[22] = target: RAF proto-oncogene serine/threonine-protein kinase (Homo sapiens) (UniProt P04049); assay: Inhibition of RAF1 (unknown origin) at 1000 nM incubated for 1 hrs by active site-directed competition binding assay relative to control
[23] = target: Tyrosine-protein kinase ZAP-70 (Homo sapiens) (UniProt P43403); assay: Inhibition of ZAP70 (unknown origin) at 1000 nM incubated for 1 hrs by active site-directed competition binding assay relative to control
[24] = Toxicity in CD-1 mouse assessed as body weight loss at 1000 mg/kg, po; assay type: organism-based; conditions: in vivo
[25] = Cmax in overnight fasted mouse at 10 mg/kg, po; assay type: ADME, organism-based; conditions: in vivo
Homo sapiens = species on record: Homo sapiens; assay: Inhibition of TAK1 (unknown origin) at 1000 nM incubated for 1 hrs by active site-directed competition binding assay relative to control
[26] = target: Mitogen-activated protein kinase 9 (Homo sapiens) (UniProt P45984); assay: Inhibition of JNK2 (unknown origin) at 1000 nM incubated for 1 hrs by active site-directed competition binding assay relative to control
[27] = Toxicity against BALB/c mouse […] with mouse CT26 cells assessed as body weight loss at 3 mg/kg, ip administered twice daily and measured on 13 day in presence of presence of anti-PD-1; assay type: organism-based; conditions: in vivo, 312 h
[28] = target: Mitogen-activated protein kinase kinase kinase kinase 1 (Mus musculus) (UniProt P70218); assay: In vivo inhibition of HPK1 in female BALB/c mouse assessed as reduction in SLP76 phosphorylation in spleen at 100 mg/kg qd, ip and measured after 24 hrs post dosing by Western blot analysis relative to control; assay type: functional, organism-based
[29] = target: Mitogen-activated protein kinase 13 (Homo sapiens) (UniProt O15264); assay: Inhibition of P38delta (unknown origin) at 1000 nM incubated for 1 hrs by active site-directed competition binding assay relative to control
[30] = AUC (0 to 24 hrs) in overnight fasted mouse at 10 mg/kg, po; assay type: ADME, organism-based; conditions: in vivo
[31] = target: Mitogen-activated protein kinase kinase kinase kinase 4 (Homo sapiens, UniProt O95819); assay: Inhibition of N-terminal GST-tagged recombinant human MAP4K4 (1 to 328 residues) expressed in Sf21 insect cells preincubated for 10 min followed by fluorescein PKC and ATP addition and measured after 90 min by Envision2104 Multilabel Reader analysis
[32] = target: Mitogen-activated protein kinase 11 (Homo sapiens) (UniProt Q15759); assay: Inhibition of P38beta (unknown origin) at 1000 nM incubated for 1 hrs by active site-directed competition binding assay relative to control
[33] = target: Tyrosine-protein kinase Lck (Homo sapiens) (UniProt P06239); assay: Inhibition of LCK (unknown origin) at 1000 nM incubated for 1 hrs by active site-directed competition binding assay relative to control; values are per cent of control
[34] = target: Mitogen-activated protein kinase 8 (Homo sapiens) (UniProt P45983); assay: Inhibition of JNK1 (unknown origin) at 1000 nM incubated for 1 hrs by active site-directed competition binding assay relative to control
[35] = target: Mitogen-activated protein kinase kinase kinase kinase 5 (Homo sapiens, UniProt Q9Y4K4); assay: Inhibition of GST-tagged recombinant human full length MAP4K5 expressed in insect cells preincubated for 10 min followed by fluorescein PKC and ATP addition and measured after 90 min by Envision2104 Multilabel Reader analysis; set-up: species or system Insect cell
[36] = Toxicity in CD-1 mouse assessed as body weight loss at 300 mg/kg, po; assay type: organism-based; conditions: in vivo
[37] = Oral bioavailability in in overnight fasted mouse at 10 mg/kg; assay type: ADME, organism-based; conditions: in vivo
[38] = AUC (0 to 24 hrs) in overnight fasted rat at 10 mg/kg, po; assay type: ADME, organism-based; conditions: in vivo
[39] = target: Mitogen-activated protein kinase 12 (Homo sapiens) (UniProt P53778); assay: Inhibition of P38gamma (unknown origin) at 1000 nM incubated for 1 hrs by active site-directed competition binding assay relative to control
[40] = target: RAC-gamma serine/threonine-protein kinase (Homo sapiens) (UniProt Q9Y243); assay: Inhibition of AKT3 (unknown origin) at 1000 nM incubated for 1 hrs by active site-directed competition binding assay relative to control; values are per cent of control
[41] = target: T1, Mitogen-activated protein kinase kinase kinase kinase 1; assay: Inhibition of human HPK1 at 1000 nM incubated for 1 hrs by active site-directed competition binding assay relative to control; values are per cent of control
Target sequence in this assay (Q92918 whole entry, looked up, the tested form may be a part): as the sequence (Q92918 whole entry, the tested form may be a part) above

[42] = Plasma Clearance in overnight fasted rat at 1 mg/kg, iv; assay type: ADME, organism-based
[43] = target: Mitogen-activated protein kinase kinase kinase kinase 2 (Homo sapiens, UniProt Q12851); assay: Inhibition of N-terminal GST tagged recombinant human MAP4K2 (1 to 820 residues) expressed in Sf21 insect cells preincubated for 10 min followed by fluorescein PKC and ATP addition and measured after 90 min by Envision2104 Multilabel Reader analysis
[44] = Half life in overnight fasted mouse at 1 mg/kg, iv; assay type: ADME, organism-based; conditions: in vivo

Sequence of Mitogen-activated protein kinase kinase kinase kinase 1 (Mus musculus) (P70218 whole entry): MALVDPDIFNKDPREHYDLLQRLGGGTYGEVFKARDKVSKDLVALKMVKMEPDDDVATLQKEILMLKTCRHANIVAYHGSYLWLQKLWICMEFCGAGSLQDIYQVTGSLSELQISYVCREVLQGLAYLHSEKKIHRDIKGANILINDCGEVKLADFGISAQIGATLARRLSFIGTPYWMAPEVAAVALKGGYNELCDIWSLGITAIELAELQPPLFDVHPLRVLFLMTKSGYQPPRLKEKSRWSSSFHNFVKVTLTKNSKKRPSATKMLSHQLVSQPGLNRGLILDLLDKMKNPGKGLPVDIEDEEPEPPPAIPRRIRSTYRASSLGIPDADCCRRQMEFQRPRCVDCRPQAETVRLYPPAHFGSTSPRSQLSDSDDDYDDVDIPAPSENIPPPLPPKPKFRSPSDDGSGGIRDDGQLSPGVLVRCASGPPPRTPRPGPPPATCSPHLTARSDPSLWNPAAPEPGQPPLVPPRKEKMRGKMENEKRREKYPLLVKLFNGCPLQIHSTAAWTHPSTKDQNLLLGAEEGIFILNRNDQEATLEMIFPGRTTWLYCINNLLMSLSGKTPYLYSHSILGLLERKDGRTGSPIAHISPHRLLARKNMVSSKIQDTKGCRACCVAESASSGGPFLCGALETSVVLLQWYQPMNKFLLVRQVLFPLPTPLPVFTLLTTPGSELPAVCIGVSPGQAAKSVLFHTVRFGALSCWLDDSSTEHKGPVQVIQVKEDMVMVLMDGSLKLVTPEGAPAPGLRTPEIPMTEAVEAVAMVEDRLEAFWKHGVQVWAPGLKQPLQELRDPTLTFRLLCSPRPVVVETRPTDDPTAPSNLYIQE
Sequence of Mitogen-activated protein kinase 1 (Homo sapiens) (P28482 whole entry): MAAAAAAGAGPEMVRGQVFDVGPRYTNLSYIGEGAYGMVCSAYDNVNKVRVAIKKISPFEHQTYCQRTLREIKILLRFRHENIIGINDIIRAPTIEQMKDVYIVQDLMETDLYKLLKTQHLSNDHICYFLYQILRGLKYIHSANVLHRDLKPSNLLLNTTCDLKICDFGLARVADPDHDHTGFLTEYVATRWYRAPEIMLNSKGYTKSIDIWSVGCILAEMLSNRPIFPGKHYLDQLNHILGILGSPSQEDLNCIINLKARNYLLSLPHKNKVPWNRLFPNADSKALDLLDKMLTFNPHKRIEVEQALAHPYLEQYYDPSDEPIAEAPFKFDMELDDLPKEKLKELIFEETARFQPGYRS
Sequence of Mitogen-activated protein kinase 3 (Homo sapiens) (P27361 whole entry, the tested form may be a part): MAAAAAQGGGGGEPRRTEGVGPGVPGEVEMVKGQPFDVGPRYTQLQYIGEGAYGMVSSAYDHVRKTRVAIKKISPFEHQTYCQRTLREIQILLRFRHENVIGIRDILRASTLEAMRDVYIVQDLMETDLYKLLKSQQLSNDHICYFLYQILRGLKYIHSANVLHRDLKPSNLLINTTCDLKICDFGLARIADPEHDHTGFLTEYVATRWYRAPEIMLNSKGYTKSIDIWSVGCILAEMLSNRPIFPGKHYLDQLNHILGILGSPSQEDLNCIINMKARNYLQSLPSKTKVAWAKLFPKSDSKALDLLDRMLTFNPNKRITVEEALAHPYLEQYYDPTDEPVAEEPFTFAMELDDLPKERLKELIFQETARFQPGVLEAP
Sequence of Tyrosine-protein kinase ITK/TSK (Homo sapiens) (Q08881 whole entry): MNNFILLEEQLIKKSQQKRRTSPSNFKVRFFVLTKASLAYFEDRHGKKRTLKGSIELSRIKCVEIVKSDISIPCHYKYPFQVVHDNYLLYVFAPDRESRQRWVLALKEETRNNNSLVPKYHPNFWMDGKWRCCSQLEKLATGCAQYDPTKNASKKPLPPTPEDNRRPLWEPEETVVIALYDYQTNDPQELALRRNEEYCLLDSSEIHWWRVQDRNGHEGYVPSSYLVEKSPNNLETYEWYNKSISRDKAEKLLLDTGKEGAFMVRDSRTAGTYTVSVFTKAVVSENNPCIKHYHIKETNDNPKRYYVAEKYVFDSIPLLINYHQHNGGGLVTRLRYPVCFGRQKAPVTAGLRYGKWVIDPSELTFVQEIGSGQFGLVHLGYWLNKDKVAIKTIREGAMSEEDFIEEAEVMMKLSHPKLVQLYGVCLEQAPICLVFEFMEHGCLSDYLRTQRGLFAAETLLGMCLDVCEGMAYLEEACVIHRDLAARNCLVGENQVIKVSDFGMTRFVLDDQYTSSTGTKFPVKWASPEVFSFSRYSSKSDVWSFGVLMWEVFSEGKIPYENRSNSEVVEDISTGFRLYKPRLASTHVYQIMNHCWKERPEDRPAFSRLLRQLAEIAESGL
Sequence of RAC-beta serine/threonine-protein kinase (Homo sapiens) (P31751 whole entry): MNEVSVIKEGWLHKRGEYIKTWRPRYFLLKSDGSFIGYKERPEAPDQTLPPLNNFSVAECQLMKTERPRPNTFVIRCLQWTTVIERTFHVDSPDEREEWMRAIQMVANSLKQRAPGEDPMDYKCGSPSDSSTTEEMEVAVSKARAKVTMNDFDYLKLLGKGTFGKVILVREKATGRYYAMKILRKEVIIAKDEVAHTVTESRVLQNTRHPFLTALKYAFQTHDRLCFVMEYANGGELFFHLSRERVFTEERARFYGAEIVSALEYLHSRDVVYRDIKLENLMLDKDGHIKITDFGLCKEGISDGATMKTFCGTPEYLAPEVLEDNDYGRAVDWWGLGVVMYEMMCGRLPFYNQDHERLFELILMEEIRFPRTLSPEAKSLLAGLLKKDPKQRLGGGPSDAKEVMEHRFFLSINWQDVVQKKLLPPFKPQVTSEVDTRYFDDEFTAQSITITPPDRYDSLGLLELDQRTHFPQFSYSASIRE
Sequence of Tyrosine-protein kinase ZAP-70 (Homo sapiens) (P43403 whole entry): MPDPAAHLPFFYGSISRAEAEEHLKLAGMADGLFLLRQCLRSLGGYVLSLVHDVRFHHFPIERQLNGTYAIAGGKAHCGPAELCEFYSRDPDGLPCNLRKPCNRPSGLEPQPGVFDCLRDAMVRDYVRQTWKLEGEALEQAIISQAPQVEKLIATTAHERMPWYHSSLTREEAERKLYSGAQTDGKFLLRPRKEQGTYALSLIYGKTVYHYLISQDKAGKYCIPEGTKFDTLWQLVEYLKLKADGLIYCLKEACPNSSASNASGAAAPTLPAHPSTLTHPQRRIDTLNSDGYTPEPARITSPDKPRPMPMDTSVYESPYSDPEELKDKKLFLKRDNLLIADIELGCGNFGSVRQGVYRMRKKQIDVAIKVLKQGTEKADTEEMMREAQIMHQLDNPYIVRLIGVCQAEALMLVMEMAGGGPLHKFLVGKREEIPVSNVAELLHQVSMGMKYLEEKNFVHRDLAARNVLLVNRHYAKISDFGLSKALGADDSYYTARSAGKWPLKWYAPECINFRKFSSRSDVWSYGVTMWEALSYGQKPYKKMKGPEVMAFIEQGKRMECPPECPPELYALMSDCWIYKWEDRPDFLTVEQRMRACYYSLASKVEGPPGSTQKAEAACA

O=C(NCc1nc(Nc2ccc(-c3cnc4cc(F)ccn34)c3cn[nH]c(=O)c23)ccc1C1CCOCC1)NC1CC1
IC50 [1]: > 1000 nM

CN(C)Cc1nc(Nc2ccc(-c3cnc4cc(F)ccn34)c3c(F)c[nH]c(=O)c23)ccc1C1CCOCC1
IC50 [1]: > 1000 nM

O=c1[nH]ncc2c(-c3cnc4cc(F)ccn34)ccc(Nc3ccc(C4CCOCC4)c(CN4CC[C@@H](F)C4)n3)c12
EC50 [2]: 55 nM | EC50 [3]: 373 nM | Activity [3]: Dose-dependent-effect | IC50 [1]: 34 nM

Cc1cc2c(-c3cnc4cc(F)ccn34)ccc(Nc3ccc(C4CCOCC4)c(CN(C)C)n3)c2c(=O)[nH]1
IC50 [1]: > 1000 nM

COC1CCN(Cc2nc(Nc3ccc(-c4cnc5cc(F)ccn45)c4cn[nH]c(=O)c34)ccc2C2CCOCC2)C1 (centres undefined)
EC50 [2]: 32 nM | EC50 [3]: 254 nM | Activity [3]: Dose-dependent-effect | IC50 [1]: 24.4 nM

O=c1[nH]ccc2c(-c3cnc4cc(F)ccn34)ccc(Nc3ccc(C4CCOCC4)c(CN4CC[C@H](F)C4)n3)c12
inhibition [4]: 69% | percent of control [5]: 100% | inhibition [6]: 94% | Activity [7]: Non-toxic | clearance [8]: 46 mL/min/kg | half-life [9]: 48 min | IC50 [10]: 4740 nM | bioavailability [11]: 80% | inhibition [12]: 100% | inhibition [13]: 94% | IC50 [14]: 85 nM | inhibition [15]: 93% | inhibition in vivo at 3 mg/kg (CT26 [16]): 95% | inhibition [17]: 56% | IC50 (Misshapen-like kinase 1): 168 nM | EC50 [2]: 41 nM | percent of control [18]: 100% | Cmax [19]: 518 ng/mL | inhibition in vivo at 30 mg/kg (CT26 [20]): 42% | percent of control [21]: 100% | inhibition [22]: 85% | inhibition [23]: 90% | Activity [24]: Non-toxic | Cmax [25]: 1800 ng/mL | inhibition (Homo sapiens): 1.5% | inhibition [26]: 86% | Activity [27]: Non-toxic | inhibition [28]: 50% | inhibition [29]: 62% | AUC(0-t) [30]: 4140 ng·h/mL | IC50 [31]: 665 nM | inhibition [32]: 84% | percent of control [33]: 100% | inhibition [34]: 96% | IC50 [35]: 104 nM | Activity [36]: Non-toxic | bioavailability [37]: 116% | AUC(0-t) [38]: 2010 ng·h/mL | EC50 [3]: 108 nM | Activity [3]: Dose-dependent-effect | inhibition [39]: 36% | percent of control [40]: 100% | percent of control [41]: 0.6% | clearance [42]: 67 mL/min/kg | IC50 [43]: 448 nM | IC50 [1]: 10.4 nM | half-life [44]: 36 min

CN(C)Cc1nc(Nc2ncc(-c3cnc4cc(F)ccn34)c3cn[nH]c(=O)c23)ccc1C1CCOCC1
IC50 [1]: 539 nM
